Results: ChEMBL document CHEMBL4219090, “Synthesis and biological evaluation of polyhydroxylated oxindole derivatives as potential antileishmanial agent” (Bioorg Med Chem Lett, 2018)
Calls of active or inactive are those of the source. No cut-off for these calls is given here.

Columns and labels:
Leishmania donovani [1] = assay: Antileishmanial activity against Leishmania donovani MHOM/IN/1983/AG83 promastigotes transformed from splenic intracellular amastigotes of infected BALB/c mouse after 48 hrs by MTT assay; type: functional, organism-based; conditions: MHOM/IN/1983/AG83, 48 h
Leishmania donovani [2] = assay: Antileishmanial activity against Leishmania donovani MHOM/IN/1983/AG83 promastigotes transformed from splenic intracellular amastigotes of infected BALB/c mouse after 48 hrs by […]; type: functional, organism-based; conditions: MHOM/IN/1983/AG83, 48 h
Leishmania donovani [3] = assay: (§1) Cell cycle arrest in Leishmania donovani MHOM/IN/1983/AG83 promastigotes transformed from splenic intracellular amastigotes of infected BALB/c mouse assessed as accumulation at sub-G0/G1 phase at IC50 after 48 hrs by propidium iodide staining-based flow cytometric analysis (reference value: 2.61 +/- 0.33%); type: functional
Leishmania donovani [4] = assay: as §1, with “24” for “48”; type: functional
Leishmania donovani [5] = assay: Cell cycle arrest in Leishmania donovani MHOM/IN/1983/AG83 promastigotes transformed from splenic intracellular amastigotes of infected BALB/c mouse assessed as accumulation at G0/G1 phase at IC50 after 48 hrs by propidium iodide staining-based flow cytometric analysis (reference value: 81.06%); type: functional
Leishmania donovani [6] = assay: Cell cycle arrest in Leishmania donovani MHOM/IN/1983/AG83 promastigotes transformed from splenic intracellular amastigotes of infected BALB/c mouse assessed as accumulation at sub-G0/G1 phase at IC50 by propidium iodide staining-based flow cytometric analysis; type: functional, organism-based; conditions: TDE = time-dependent effect
Leishmania donovani [7] = assay: Induction of ROS generation in Leishmania donovani MHOM/IN/1983/AG83 promastigotes transformed from splenic intracellular amastigotes of infected BALB/c mouse at IC50 by H2DCFDA probe-based flow cytometric analysis; type: functional, organism-based; conditions: TDE = time-dependent effect
Leishmania donovani [8] = assay: Induction of apoptosis in Leishmania donovani MHOM/IN/1983/AG83 promastigotes transformed from splenic intracellular amastigotes of infected BALB/c mouse assessed as viable cells at 15 uM after 24 hrs by Annexin V-PE/7-AAD staining-based flow cytometric analysis relative to control; type: functional
Leishmania donovani [9] = assay: Induction of apoptosis in Leishmania donovani MHOM/IN/1983/AG83 promastigotes transformed from splenic intracellular amastigotes of infected BALB/c mouse assessed as early apoptotic cells at 15 uM after 24 hrs by Annexin V-PE/7-AAD staining-based flow cytometric analysis relative to control; type: functional
Leishmania donovani [10] = assay: Induction of apoptosis in Leishmania donovani MHOM/IN/1983/AG83 promastigotes transformed from splenic intracellular amastigotes of infected BALB/c mouse assessed as late apoptotic cells at 15 uM after 24 hrs by Annexin V-PE/7-AAD staining-based flow cytometric analysis relative to control; type: functional
Leishmania donovani [11] = assay: Induction of apoptosis in Leishmania donovani MHOM/IN/1983/AG83 promastigotes transformed from splenic intracellular amastigotes of infected BALB/c mouse assessed as necrotic cells at 15 uM after 24 hrs by Annexin V-PE/7-AAD staining-based flow cytometric analysis relative to control; type: functional
Leishmania donovani [12] = assay: (§2) Induction of apoptosis in Leishmania donovani MHOM/IN/1983/AG83 promastigotes transformed from splenic intracellular amastigotes of infected BALB/c mouse assessed as viable cells at 15 uM after 48 hrs by Annexin V-PE/7-AAD staining-based flow cytometric analysis (reference value: 84.97%); type: functional
Leishmania donovani [13] = assay: as §2, with “early apoptotic” for “viable”, “10.98 +/- 1.22%)” for “84.97%)”; type: functional
Leishmania donovani [14] = assay: as §2, with “late apoptotic” for “viable”, “2.55 +/- 0.49%)” for “84.97%)”; type: functional
Leishmania donovani [15] = assay: Induction of apoptosis in Leishmania donovani MHOM/IN/1983/AG83 promastigotes transformed from splenic intracellular amastigotes of infected BALB/c mouse assessed as necrotic cells at 15 uM after 48 hrs by Annexin V-PE/7-AAD staining-based flow cytometric analysis (reference value: 1.51%); type: functional
Leishmania donovani [16] = assay: Induction of apoptosis in Leishmania donovani MHOM/IN/1983/AG83 promastigotes transformed from splenic intracellular amastigotes of infected BALB/c mouse assessed as chromatin condensation after 48 hrs by DAPI staining-based confocal laser scanning microscopic analysis; type: functional, organism-based
Leishmania donovani [17] = assay: Induction of apoptosis in Leishmania donovani MHOM/IN/1983/AG83 promastigotes transformed from splenic intracellular amastigotes of infected BALB/c mouse assessed as nuclei blebbing after 48 hrs by DAPI staining-based confocal laser scanning microscopic analysis; type: functional, organism-based
Leishmania donovani [18] = assay: Induction of apoptosis in Leishmania donovani MHOM/IN/1983/AG83 promastigotes transformed from splenic intracellular amastigotes of infected BALB/c mouse assessed as accumulation of lipid droplets in cytoplasm after 48 hrs by Nile red staining-based confocal laser scanning microscopic analysis; type: functional, organism-based
Leishmania donovani [19] = assay: Antileishmanial activity against Leishmania donovani MHOM/IN/1983/AG83 amastigotes infected in BALB/c mouse peritoneal macrophages at 1 uM after 48 hrs by phase contrast microscopic analysis relative to control; type: functional
Leishmania donovani [20] = assay: Induction of nitric oxide generation in Leishmania donovani MHOM/IN/1983/AG83 amastigotes infected in BALB/c mouse peritoneal macrophages at IC50 by Griess reagent based analysis relative to control; type: functional
[21] = Cytotoxicity against PHA-stimulated mouse splenocytes assessed as cell survival at 8 uM after 96 hrs by MTT assay (reference value: 100%); type: cell-based, Splenocyte; conditions: read-out: Survival
[22] = Cytotoxicity against PHA-stimulated mouse splenocytes assessed as cell survival at 16 uM after 96 hrs by MTT assay (reference value: 100%); type: cell-based, Splenocyte; conditions: read-out: Survival
[23] = Cytotoxicity against PHA-stimulated mouse splenocytes assessed as cell survival at 32 uM after 96 hrs by MTT assay (reference value: 100%); type: cell-based, Splenocyte; conditions: read-out: Survival
[24] = Cytotoxicity against PHA-stimulated mouse splenocytes assessed as cell survival at 64 uM after 96 hrs by MTT assay (reference value: 100%); type: cell-based, Splenocyte; conditions: read-out: Survival
[25] = Cytotoxicity against PHA-stimulated mouse splenocytes assessed as cell survival at 128 uM after 96 hrs by MTT assay (reference value: 100%); type: cell-based, Splenocyte; conditions: read-out: Survival
Leishmania donovani [26] = assay: Antileishmanial activity against Leishmania donovani MHOM/IN/1983/AG83 promastigotes transformed from splenic intracellular amastigotes of infected BALB/c mouse assessed as parasite survival at 8 uM after 48 hrs by MTT assay (reference value: 100%); type: functional; conditions: MHOM/IN/1983/AG83, 48 h
Leishmania donovani [27] = assay: Antileishmanial activity against Leishmania donovani MHOM/IN/1983/AG83 promastigotes transformed from splenic intracellular amastigotes of infected BALB/c mouse assessed as parasite survival at 16 uM after 48 hrs by MTT assay (reference value: 100%); type: functional; conditions: MHOM/IN/1983/AG83, 48 h
Leishmania donovani [28] = assay: Antileishmanial activity against Leishmania donovani MHOM/IN/1983/AG83 promastigotes transformed from splenic intracellular amastigotes of infected BALB/c mouse assessed as parasite survival at 32 uM after 48 hrs by MTT assay (reference value: 100%); type: functional; conditions: MHOM/IN/1983/AG83, 48 h
Leishmania donovani [29] = assay: Antileishmanial activity against Leishmania donovani MHOM/IN/1983/AG83 promastigotes transformed from splenic intracellular amastigotes of infected BALB/c mouse assessed as parasite survival at 64 uM after 48 hrs by MTT assay (reference value: 100%); type: functional; conditions: MHOM/IN/1983/AG83, 48 h
Leishmania donovani [30] = assay: Antileishmanial activity against Leishmania donovani MHOM/IN/1983/AG83 promastigotes transformed from splenic intracellular amastigotes of infected BALB/c mouse assessed as parasite survival at 128 uM after 48 hrs by MTT assay (reference value: 100%); type: functional; conditions: MHOM/IN/1983/AG83, 48 h
Leishmania donovani [31] = assay: Induction of ROS generation in Leishmania donovani MHOM/IN/1983/AG83 promastigotes transformed from splenic intracellular amastigotes of infected BALB/c mouse at IC50 measured at 6 hrs by H2DCFDA probe-based flow cytometric analysis relative to control; type: functional
Leishmania donovani [32] = assay: Induction of apoptosis in Leishmania donovani MHOM/IN/1983/AG83 promastigotes transformed from splenic intracellular amastigotes of infected BALB/c mouse assessed as early apoptotic cells at 15 uM by Annexin V-PE/7-AAD staining-based flow cytometric analysis; type: functional, organism-based; conditions: TDE = time-dependent effect
Leishmania donovani [33] = assay: Induction of apoptosis in Leishmania donovani MHOM/IN/1983/AG83 promastigotes transformed from splenic intracellular amastigotes of infected BALB/c mouse assessed as late apoptotic cells at 15 uM by Annexin V-PE/7-AAD staining-based flow cytometric analysis; type: functional, organism-based; conditions: TDE = time-dependent effect

## CCCCCCCCCCCCCCCCOP(=O)([O-])OCC[N+](C)(C)C [MILTEFOSINE]
Leishmania donovani [1]
  IC50: 21 µM
Leishmania donovani [2]
  IC50: 21 µM

## O=C1C(=C(c2ccc(O)cc2)c2ccc(O)cc2)c2cc(/C=C/c3ccc(O)c(O)c3)ccc2N1Cc1ccc(O)cc1
Leishmania donovani [1]
  IC50: 15 µM
Leishmania donovani [3]
  Activity: 8.86%
Leishmania donovani [4]
  Activity: 6.79 - 6.97%
Leishmania donovani [5]
  Activity: 71.37%
Leishmania donovani [6]
  Activity: Tde
Leishmania donovani [7]
  Activity: Tde
Leishmania donovani [8]
  Activity: 45.2%
Leishmania donovani [9]
  Activity: 35.01%
Leishmania donovani [10]
  Activity: 14.76%
Leishmania donovani [11]
  Activity: 5.03%
Leishmania donovani [12]
  Activity: 38.43%
Leishmania donovani [13]
  Activity: 42.08%
Leishmania donovani [14]
  Activity: 15.39%
Leishmania donovani [15]
  Activity: 4.09%
Leishmania donovani [16]
  Activity: Active
Leishmania donovani [17]
  Activity: Active
Leishmania donovani [18]
  Activity: Active
Leishmania donovani [19]
  Activity: 50%
Leishmania donovani [20]
  fold change (FC): 3
[21]
  viability at 96 h, 8 µM: 96.6%
[22]
  viability at 96 h, 16 µM: 92.3%
[23]
  viability at 96 h, 32 µM: 90.5%
[24]
  viability at 96 h, 64 µM: 87.3%
[25]
  viability at 96 h, 128 µM: 85.2%
Leishmania donovani [26]
  survival at 8 µM: 96.2%
Leishmania donovani [27]
  survival at 16 µM: 46.7%
Leishmania donovani [28]
  survival at 32 µM: 31.6%
Leishmania donovani [29]
  survival at 64 µM: 17.9%
Leishmania donovani [30]
  survival at 128 µM: 5.42%
Leishmania donovani [31]
  fold change (FC): >3
Leishmania donovani [32]
  Activity: Tde
Leishmania donovani [33]
  Activity: Tde

## COc1ccc(CN2C(=O)C(=C(c3ccc(O)cc3)c3ccc(O)cc3)c3cc(/C=C/c4ccc(F)c(F)c4)ccc32)cc1
Leishmania donovani [1]
  IC50: 220 µM
Leishmania donovani [26]
  survival at 8 µM: 97.5%
Leishmania donovani [27]
  survival at 16 µM: 96%
Leishmania donovani [28]
  survival at 32 µM: 93.2%

## COc1ccc(CN2C(=O)C(=C(c3ccc(O)cc3)c3ccc(O)cc3)c3cc(/C=C/c4ccc(OC)c(OC)c4)ccc32)cc1
Leishmania donovani [1]
  IC50: 31 µM
Leishmania donovani [26]
  survival at 8 µM: 79.2%
Leishmania donovani [27]
  survival at 16 µM: 70.6%
Leishmania donovani [28]
  survival at 32 µM: 53.7%

## COc1ccc(CN2C(=O)C(=C(c3ccc(O)cc3)c3ccc(O)cc3)c3ccccc32)cc1
Leishmania donovani [1]
  IC50: 47.2 µM
Leishmania donovani [26]
  survival at 8 µM: 96.4%
Leishmania donovani [27]
  survival at 16 µM: 81%
Leishmania donovani [28]
  survival at 32 µM: 66.1%

## COc1ccc(CN2C(=O)C(=C(c3ccc(O)cc3)c3ccc(O)cc3)c3cc(/C=C/c4ccc(C)c(C)c4)ccc32)cc1
Leishmania donovani [1]
  IC50: 225 µM
Leishmania donovani [26]
  survival at 8 µM: 97.2%
Leishmania donovani [27]
  survival at 16 µM: 95.5%
Leishmania donovani [28]
  survival at 32 µM: 93.7%

## O=C1C(=C(c2ccc(O)cc2)c2ccc(O)cc2)c2ccccc2N1Cc1ccc(O)cc1
Leishmania donovani [1]
  IC50: 200 µM
Leishmania donovani [26]
  survival at 8 µM: 98.3%
Leishmania donovani [27]
  survival at 16 µM: 96.7%
Leishmania donovani [28]
  survival at 32 µM: 92%
